{"source": "patent US20190091173A1", "about": "“METHOD OF […] BETWEEN […]” (ZOGENIX INTERNATIONAL LIMITED, priority 2017, published 2019)", "key": {"[1]": {"system": "convulsive seizures in subjects with Dravet syndrome", "test": "Study 1 (ZX008-1501/ZX008-1502), Phase 3, randomized, double-blind, placebo-controlled", "format": "in vivo, human", "settings": "0.2 mg/kg/day, end of T+M Period, SD 140.46, p=0.735", "description": "The first 119 subjects to be randomized in both identical studies combined were analyzed and reported as Study 1 (FIG. 1), covered by a Statistical Analysis Plan (SAP).\nPrimary and key secondary endpoints in the Study 1 SAP were pre-determined. All patients were treated twice per day over a period of 14 weeks using an oral syringe to administer the formulation. The treatment period included a two-week titration period and a 12-week maintenance period.\nThe initial results of Study 1 are outlined below. The randomized, double blind, placebo controlled, Phase 3 study enrolled 119 patients across sites in the United States, Canada, Europe and Australia. The median age of patients was 8 years, the mean age of patients was 9 years (range, 2-18 years) (FIG. 2).\nPatients were titrated to their target dose over two weeks, and then remained at that fixed dose for 12 weeks. The mean baseline convulsive seizure frequency across the study groups was approximately 40 seizures per month. 110 (92%) patients completed the study (85% 0.8 mg/kg/day; 100% 0.2 mg/kg/day; 93% placebo). […]\nThe mean number of convulsive seizure free days, defined as a day for which diary data are available and no convulsive seizures have been reported, was determined for each treatment group during the Baseline and T+M Periods. […]"}, "[2]": {"system": "seizures in patients with Dravet syndrome", "settings": "long-term fenfluramine treatment; cited from earlier work"}}, "data": [{"smiles": "CCNC(C)Cc1cccc(C(F)(F)F)c1", "note": "(stereo not shown) [Fenfluramine, 3-trifluoromethyl-N-ethylamphetamine]", "values": [{"measurement": "reduction from Baseline in non-convulsive seizures (all types) per 28 days", "setting": "[1]", "result": 9.7, "unit": "%"}, {"measurement": "effect on types of seizures", "setting": "[2]", "result": "effectively reduced the incidence of all types of seizures"}, {"measurement": "reduction in seizures", "setting": "[2]", "result": 75, "unit": "%"}, {"measurement": "test subjects in seizure-free condition", "setting": "[2]", "result": 66.6, "unit": "%"}]}]}
